From patent US8022068B2, “Substituted piperidines as renin inhibitors” (Novartis AG, priority 2008, dated 2011)

Molecular target: T1, renin (Homo sapiens, UniProt P00797)
T1 construct: This test measures the formation of angiotensin I in human plasma; from tissue; host or cells: human plasma
T1 sequence (P00797 67-406): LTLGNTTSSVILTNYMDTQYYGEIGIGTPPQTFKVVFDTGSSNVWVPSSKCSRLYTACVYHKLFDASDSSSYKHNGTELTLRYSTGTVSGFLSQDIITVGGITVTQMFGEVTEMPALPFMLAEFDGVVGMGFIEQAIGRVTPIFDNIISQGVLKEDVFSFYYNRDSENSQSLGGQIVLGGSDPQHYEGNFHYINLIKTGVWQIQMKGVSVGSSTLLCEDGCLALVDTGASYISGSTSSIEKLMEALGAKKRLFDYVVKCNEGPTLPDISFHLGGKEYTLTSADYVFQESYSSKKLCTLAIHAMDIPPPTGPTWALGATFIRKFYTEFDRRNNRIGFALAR
Test: formation of angiotensin I in human plasma (Nussberger et al.), radioimmunoassay
Type: biochemical
Settings: angiotensin I determined by radioimmunoassay, read-out: IC50, inhibition of the formation of angiotensin I
Protocol: The effect of renin inhibitors is detected inter alia experimentally by means of in vitro tests where the reduction in the formation of angiotensin I is measured in various systems (human plasma, purified human renin together with synthetic or natural renin substrate). The following in vitro test of Nussberger et al. (1987) J. Cardiovascular Pharmacol., Vol. 9, pp. 39-44, is used inter alia. This test measures the formation of angiotensin I in human plasma. The amount of angiotensin I formed is determined in a subsequent radioimmunoassay. The effect of inhibitors on the formation of angiotensin I is tested in this system by adding various concentrations of these substances. The IC50 is defined as the concentration of the particular inhibitor which reduces the formation of angiotensin I by 50%. The compounds of the present invention show inhibitory effects in the in vitro systems at minimal concentrations of about 10^−6 mol/l to about 10^−10 mol/l.

IC50 [nM]	Compound
0.1 to 10	COCCCN1CCOc2ccc(CO[C@H]3CN[C@@H](Cc4nncn4C)C[C@@H]3c3ccc(COC[C@@H](C)COC)cc3)cc21 [Example 8, 6-[(3R,4R,6R)-4-[4-((S)-3-Methoxy-2-methyl-propoxymethyl)-phenyl]-6-(4-methyl-4H-[1,2,4]triazol-3-ylmethyl)-piperidin-3-yloxymethyl]-4-(3-methoxy-propyl)-3,4-dihydro-2H-benzo[1,4]oxazine]
0.1 to 10	COCCCN1CCOc2ccc(CO[C@H]3CN[C@@H](CN4CCOCC4)C[C@@H]3c3ccc(COC[C@@H](C)COC)cc3)cc21 [Example 10, 6-{(3R,4R,6R)-4-[4-((S)-3-Methoxy-2-methyl-propoxymethyl)-phenyl]-6-morpholin-4-ylmethyl-piperidin-3-yloxymethyl}-4-(3-methoxy-propyl)-3,4-dihydro-2H-benzo[1,4]oxazine]
